Source: ChEMBL document CHEMBL1671627, “Increasing trends in antimicrobial resistance among clinically important anaerobes and Bacteroides fragilis isolates causing nosocomial infections: emerging resistance to carbapenems” (2008)
≈ marks a conversion by molar mass, not a printed value.

How the values were obtained:
Prevotella intermedia [1] = test: Antibacterial activity against Prevotella intermedia by CLSI agar dilution method; format: functional
Fusobacterium nucleatum [2] = test: Antibacterial activity against Fusobacterium nucleatum by CLSI agar dilution method; format: functional
Fusobacterium varium [3] = test: Antibacterial activity against Fusobacterium varium assessed as susceptible isolates by CLSI agar dilution method; format: functional
Clostridium tertium [4] = test: Antibacterial activity against beta-lactamase producing Clostridium tertium assessed as susceptible isolates by CLSI agar dilution method; format: functional
Bacteroides caccae [5] = test: Antibacterial activity against beta-lactamase producing Bacteroides caccae assessed as susceptible isolates by CLSI agar dilution method; format: functional
[6] = tested on: Peptoniphilus asaccharolyticus; test: Antibacterial activity against beta-lactamase producing Peptoniphilus asaccharolyticus assessed as resistant isolates by CLSI agar dilution method; format: functional
Parvimonas micra [7] = test: Antibacterial activity against beta-lactamase producing Micromonas micros by CLSI agar dilution method; format: functional
[8] = tested on: Fusobacterium necrophorum; test: Antibacterial activity against Fusobacterium necrophorum by CLSI agar dilution method; format: functional
Bacteroides fragilis [9] = test: Antibacterial activity against Bacteroides fragilis assessed as resistant isolates by CLSI agar dilution method; format: functional
Fusobacterium nucleatum [10] = test: Antibacterial activity against Fusobacterium nucleatum assessed as susceptible isolates by CLSI agar dilution method; format: functional
Veillonella parvula = test: Antibacterial activity against Veillonella parvula by CLSI agar dilution method; format: functional
[11] = tested on: Clostridium paraputrificum; test: Antibacterial activity against beta-lactamase producing Clostridium paraputrificum assessed as resistant isolates by CLSI agar dilution method; format: functional
Prevotella bivia [12] = test: Antibacterial activity against Prevotella bivia assessed as resistant isolates by CLSI agar dilution method; format: functional
Parvimonas micra [13] = test: Antibacterial activity against beta-lactamase producing Micromonas micros assessed as susceptible isolates by CLSI agar dilution method; format: functional
Phocaeicola vulgatus [14] = test: Antibacterial activity against beta-lactamase producing Bacteroides vulgatus by CLSI agar dilution method; format: functional
Bacteroides fragilis [15] = test: Antibacterial activity against Bacteroides fragilis by CLSI agar dilution method; format: functional
[16] = tested on: Peptostreptococcus anaerobius; test: Antibacterial activity against beta-lactamase producing Peptostreptococcus anaerobius by CLSI agar dilution method; format: functional
Bacteroides uniformis [17] = test: Antibacterial activity against beta-lactamase producing Bacteroides uniformis by CLSI agar dilution method; format: functional
[18] = tested on: Peptoniphilus asaccharolyticus; test: Antibacterial activity against beta-lactamase producing Peptoniphilus asaccharolyticus assessed as susceptible isolates by CLSI agar dilution method; format: functional
[19] = tested on: Prevotella melaninogenica; test: Antibacterial activity against Prevotella melaninogenica assessed as resistant isolates by CLSI agar dilution method; format: functional
Parvimonas micra [20] = test: Antibacterial activity against beta-lactamase producing Micromonas micros assessed as resistant isolates by CLSI agar dilution method; format: functional
Clostridium perfringens = test: microbe, parasite or virus in culture; format: functional
Bacteroides caccae [21] = test: Antibacterial activity against beta-lactamase producing Bacteroides caccae by CLSI agar dilution method; format: functional
[22] = tested on: Bacteroides thetaiotaomicron; test: Antibacterial activity against beta-lactamase producing Bacteroides thetaiotaomicron assessed as resistant isolates by CLSI agar dilution method; format: functional
[23] = tested on: Peptostreptococcus anaerobius; test: Antibacterial activity against beta-lactamase producing Peptostreptococcus anaerobius assessed as susceptible isolates by CLSI agar dilution method; format: functional
Bacteroides fragilis [24] = test: Antibacterial activity against Bacteroides fragilis assessed as susceptible isolates by CLSI agar dilution method; format: functional
[25] = tested on: Prevotella melaninogenica; test: Antibacterial activity against Prevotella melaninogenica assessed as susceptible isolates by CLSI agar dilution method; format: functional
[26] = tested on: Bacteroides thetaiotaomicron; test: Antibacterial activity against beta-lactamase producing Bacteroides thetaiotaomicron by CLSI agar dilution method; format: functional
Prevotella buccae [27] = test: Antibacterial activity against Prevotella buccae assessed as resistant isolates by CLSI agar dilution method; format: functional, Segatella buccae
[28] = tested on: Clostridium paraputrificum; test: Antibacterial activity against beta-lactamase producing Clostridium paraputrificum by CLSI agar dilution method; format: functional
Phocaeicola vulgatus [29] = test: Antibacterial activity against beta-lactamase producing Bacteroides vulgatus assessed as resistant isolates by CLSI agar dilution method; format: functional
Fusobacterium varium [30] = test: Antibacterial activity against Fusobacterium varium by CLSI agar dilution method; format: functional
[31] = tested on: Prevotella melaninogenica; test: Antibacterial activity against Prevotella melaninogenica by CLSI agar dilution method; format: functional
Prevotella buccae [32] = test: Antibacterial activity against Prevotella buccae by CLSI agar dilution method; format: functional; conditions: Segatella buccae
[33] = tested on: Peptoniphilus asaccharolyticus; test: Antibacterial activity against beta-lactamase producing Peptoniphilus asaccharolyticus by CLSI agar dilution method; format: functional
Clostridium septicum [34] = test: Antibacterial activity against beta-lactamase producing Clostridium septicum by CLSI agar dilution method; format: functional
Bacteroides uniformis [35] = test: Antibacterial activity against beta-lactamase producing Bacteroides uniformis assessed as resistant isolates by CLSI agar dilution method; format: functional
Fusobacterium nucleatum [36] = test: Antibacterial activity against Fusobacterium nucleatum assessed as resistant isolates by CLSI agar dilution method; format: functional
Fusobacterium varium [37] = test: Antibacterial activity against Fusobacterium varium assessed as resistant isolates by CLSI agar dilution method; format: functional
Prevotella buccae [38] = test: Antibacterial activity against Prevotella buccae assessed as susceptible isolates by CLSI agar dilution method; format: functional, Segatella buccae
Phocaeicola vulgatus [39] = test: Antibacterial activity against beta-lactamase producing Bacteroides vulgatus assessed as susceptible isolates by CLSI agar dilution method; format: functional
Clostridium septicum [40] = test: Antibacterial activity against beta-lactamase producing Clostridium septicum assessed as susceptible isolates by CLSI agar dilution method; format: functional
Prevotella intermedia [41] = test: Antibacterial activity against Prevotella intermedia assessed as susceptible isolates by CLSI agar dilution method; format: functional
[42] = tested on: Fusobacterium necrophorum; test: Antibacterial activity against Fusobacterium necrophorum assessed as resistant isolates by CLSI agar dilution method; format: functional
Finegoldia magna [43] = test: Antibacterial activity against beta-lactamase producing Finegoldia magna assessed as resistant isolates by CLSI agar dilution method; format: functional
[44] = tested on: Fusobacterium necrophorum; test: Antibacterial activity against Fusobacterium necrophorum assessed as susceptible isolates by CLSI agar dilution method; format: functional
Fusobacterium mortiferum [45] = test: Antibacterial activity against Fusobacterium mortiferum assessed as susceptible isolates by CLSI agar dilution method; format: functional
Fusobacterium mortiferum [46] = test: Antibacterial activity against Fusobacterium mortiferum by CLSI agar dilution method; format: functional
[47] = tested on: Clostridium paraputrificum; test: Antibacterial activity against beta-lactamase producing Clostridium paraputrificum assessed as susceptible isolates by CLSI agar dilution method; format: functional
Bacteroides caccae [48] = test: Antibacterial activity against beta-lactamase producing Bacteroides caccae assessed as resistant isolates by CLSI agar dilution method; format: functional
Clostridium septicum [49] = test: Antibacterial activity against beta-lactamase producing Clostridium septicum assessed as resistant isolates by CLSI agar dilution method; format: functional
[50] = tested on: Peptostreptococcus anaerobius; test: Antibacterial activity against beta-lactamase producing Peptostreptococcus anaerobius assessed as resistant isolates by CLSI agar dilution method; format: functional
Bacteroides uniformis [51] = test: Antibacterial activity against beta-lactamase producing Bacteroides uniformis assessed as susceptible isolates by CLSI agar dilution method; format: functional
Finegoldia magna [52] = test: Antibacterial activity against beta-lactamase producing Finegoldia magna assessed as susceptible isolates by CLSI agar dilution method; format: functional
Clostridium tertium [53] = test: Antibacterial activity against beta-lactamase producing Clostridium tertium by CLSI agar dilution method; format: functional
Prevotella bivia [54] = test: Antibacterial activity against Prevotella bivia assessed as susceptible isolates by CLSI agar dilution method; format: functional
Prevotella intermedia [55] = test: Antibacterial activity against Prevotella intermedia assessed as resistant isolates by CLSI agar dilution method; format: functional
Finegoldia magna [56] = test: Antibacterial activity against beta-lactamase producing Finegoldia magna by CLSI agar dilution method; format: functional
[57] = tested on: Bacteroides thetaiotaomicron; test: Antibacterial activity against beta-lactamase producing Bacteroides thetaiotaomicron assessed as susceptible isolates by CLSI agar dilution method; format: functional
Clostridium tertium [58] = test: Antibacterial activity against beta-lactamase producing Clostridium tertium assessed as resistant isolates by CLSI agar dilution method; format: functional
Prevotella bivia [59] = test: Antibacterial activity against Prevotella bivia by CLSI agar dilution method; format: functional
Fusobacterium mortiferum [60] = test: Antibacterial activity against Fusobacterium mortiferum assessed as resistant isolates by CLSI agar dilution method; format: functional

Question: What does the source list for `Cc1ncc([N+](=O)[O-])n1CCO` [METRONIDAZOLE]?
Answer: MIC50 (Prevotella intermedia [1]): 1 µg/mL (≈ 5.84 µM); MIC90 (Prevotella intermedia [1]): 8 µg/mL (≈ 46.7 µM); MIC50 (Fusobacterium nucleatum [2]): 0.5 µg/mL (≈ 2.92 µM); MIC90 (Fusobacterium nucleatum [2]): 1 µg/mL (≈ 5.84 µM); Activity (Fusobacterium varium [3]): 100%; Activity (Clostridium tertium [4]): 64%; Activity (Bacteroides caccae [5]): 100%; Activity [6]: 9%; MIC50 (Parvimonas micra [7]): 0.5 µg/mL (≈ 2.92 µM); MIC90 (Parvimonas micra [7]): 16 µg/mL (≈ 93.5 µM); MIC50 [8]: 0.5 µg/mL (≈ 2.92 µM); MIC90 [8]: 1 µg/mL (≈ 5.84 µM); Activity (Bacteroides fragilis [9]): 0%; Activity (Fusobacterium nucleatum [10]): 100%; MIC (Veillonella parvula): 1 µg/mL (≈ 5.84 µM); Activity [11]: 11%; Activity (Prevotella bivia [12]): 0%; Activity (Parvimonas micra [13]): 88%; MIC50 (Phocaeicola vulgatus [14]): 1 µg/mL (≈ 5.84 µM); MIC90 (Phocaeicola vulgatus [14]): 4 µg/mL (≈ 23.4 µM); MIC50 (Bacteroides fragilis [15]): 2 µg/mL (≈ 11.7 µM); MIC90 (Bacteroides fragilis [15]): 8 µg/mL (≈ 46.7 µM); MIC50 [16]: 0.5 µg/mL (≈ 2.92 µM); MIC90 [16]: 16 µg/mL (≈ 93.5 µM); MIC50 (Bacteroides uniformis [17]): 1 µg/mL (≈ 5.84 µM); MIC90 (Bacteroides uniformis [17]): 4 µg/mL (≈ 23.4 µM); Activity [18]: 88%; Activity [19]: 0%; Activity (Parvimonas micra [20]): 9%; MIC50 (Clostridium perfringens): 8 µg/mL (≈ 46.7 µM); MIC90 (Clostridium perfringens): 16 µg/mL (≈ 93.5 µM); MIC50 (Bacteroides caccae [21]): 1 µg/mL (≈ 5.84 µM); MIC90 (Bacteroides caccae [21]): 4 µg/mL (≈ 23.4 µM); Activity [22]: 0%; Activity [23]: 88%; Activity (Bacteroides fragilis [24]): 98%; Activity [25]: 94%; MIC50 [26]: 1 µg/mL (≈ 5.84 µM); MIC90 [26]: 2 µg/mL (≈ 11.7 µM); Activity (Prevotella buccae [27]): 0%; MIC50 [28]: 8 µg/mL (≈ 46.7 µM); MIC90 [28]: 16 µg/mL (≈ 93.5 µM); Activity (Phocaeicola vulgatus [29]): 0%; MIC50 (Fusobacterium varium [30]): 0.5 µg/mL (≈ 2.92 µM); MIC90 (Fusobacterium varium [30]): 1 µg/mL (≈ 5.84 µM); MIC50 [31]: 1 µg/mL (≈ 5.84 µM); MIC90 [31]: 8 µg/mL (≈ 46.7 µM); MIC50 (Prevotella buccae [32]): 1 µg/mL (≈ 5.84 µM); MIC90 (Prevotella buccae [32]): 8 µg/mL (≈ 46.7 µM); MIC50 [33]: 0.5 µg/mL (≈ 2.92 µM); MIC90 [33]: 16 µg/mL (≈ 93.5 µM); MIC50 (Clostridium septicum [34]): 8 µg/mL (≈ 46.7 µM); MIC90 (Clostridium septicum [34]): 16 µg/mL (≈ 93.5 µM); Activity (Bacteroides uniformis [35]): 0%; Activity (Fusobacterium nucleatum [36]): 0%; Activity (Fusobacterium varium [37]): 0%; Activity (Prevotella buccae [38]): 94%; Activity (Phocaeicola vulgatus [39]): 100%; Activity (Clostridium septicum [40]): 64%; Activity (Prevotella intermedia [41]): 94%; Activity [42]: 0%; Activity (Finegoldia magna [43]): 9%; Activity [44]: 100%; Activity (Fusobacterium mortiferum [45]): 100%; MIC50 (Fusobacterium mortiferum [46]): 0.5 µg/mL (≈ 2.92 µM); MIC90 (Fusobacterium mortiferum [46]): 1 µg/mL (≈ 5.84 µM); Activity [47]: 64%; Activity (Bacteroides caccae [48]): 0%; Activity (Clostridium septicum [49]): 11%; Activity [50]: 9%; Activity (Bacteroides uniformis [51]): 100%; Activity (Finegoldia magna [52]): 88%; MIC50 (Clostridium tertium [53]): 8 µg/mL (≈ 46.7 µM); MIC90 (Clostridium tertium [53]): 16 µg/mL (≈ 93.5 µM); Activity (Prevotella bivia [54]): 94%; Activity (Prevotella intermedia [55]): 0%; MIC50 (Finegoldia magna [56]): 0.5 µg/mL (≈ 2.92 µM); MIC90 (Finegoldia magna [56]): 16 µg/mL (≈ 93.5 µM); Activity [57]: 100%; Activity (Clostridium tertium [58]): 11%; MIC50 (Prevotella bivia [59]): 1 µg/mL (≈ 5.84 µM); MIC90 (Prevotella bivia [59]): 8 µg/mL (≈ 46.7 µM); Activity (Fusobacterium mortiferum [60]): 0%
